Values quoted from earlier work as cited in patent US20040254092A1 (priority 2003, published 2004).

Experiments:
[1] = test system: SA-H and human-wheel virus type 2
[2] = test system: Type-B hepatitis surface antigen (HbsAg)
[3] = test system: Mycoplasma, Chlamydia, and other pathogens
[4] = test system: Poliomyelitis virus type I (PVI); settings: ozone density 0.13 mg/L, time 30 seconds

O=[O+][O-] [Ozone, ozone]
Sterilizing efficiency [1]: 99.60%
Sterilizing efficiency (Coronaviridae): 100%
Sterilizing efficiency (Type-A flu virus): 99%
Sterilizing efficiency [2]: 99.99%
Sterilizing efficiency (HIV): 100%
Sterilizing efficiency (Coliphage ms2): 98%
Sterilizing efficiency [3]: 99.85%
Sterilizing efficiency [4]: 100%
